# Like-named read-outs stand apart in the source and are kept apart here.
# Legend:
# [1] = set-up: method as in guideline OPPTS 830.7570; conditions: reference substances for calibration, Tables S1–S6; ref guideline OPPTS 830.7570; cited from earlier work
# KV7.2/3 channel [2] = molecular target: T1, KV7.2/3 channel (Homo sapiens, UniProt O43525+O43526); set-up: method as in PMID 30990511; conditions: previous work; cited from earlier work
# KV7.2/3 channel [3] = molecular target: T1, KV7.2/3 channel; test: KV7.2/3 channel opening activity, thallium-flux FLIPR Potassium Assay in HEK-293 cells overexpressing KV7.2/3; set-up: Emax: dose or concentration left out as unconfirmed
# [4] = Cyclic voltammetry, anodic peak potential (oxidizability); type: physicochemical; conditions: 0.1 M Tris‐HCl buffer pH 7.4, −0.5 to 1.0 V, sweep rate 0.1 V/s, –[b] = no oxidation observed in the specified potential range
# [5] = set-up: method as in PMID 25264565; conditions: oral administration of 400 mg flupirtine, modified release dosage form once daily for 8 days; cited from earlier work
# [6] = test system: TAMH mouse liver cell line; conditions: mouse, 24 h
# [7] = set-up: method as in earlier work; conditions: severe but sporadic hepatotoxic events; cited from earlier work
# [8] = test system: HEP‐G2 human hepatoma cell line; conditions: human, 24 h
# [9] = LogD7.4 estimation by HPLC-based method; type: physicochemical
# T1 sequence (O43525 whole entry): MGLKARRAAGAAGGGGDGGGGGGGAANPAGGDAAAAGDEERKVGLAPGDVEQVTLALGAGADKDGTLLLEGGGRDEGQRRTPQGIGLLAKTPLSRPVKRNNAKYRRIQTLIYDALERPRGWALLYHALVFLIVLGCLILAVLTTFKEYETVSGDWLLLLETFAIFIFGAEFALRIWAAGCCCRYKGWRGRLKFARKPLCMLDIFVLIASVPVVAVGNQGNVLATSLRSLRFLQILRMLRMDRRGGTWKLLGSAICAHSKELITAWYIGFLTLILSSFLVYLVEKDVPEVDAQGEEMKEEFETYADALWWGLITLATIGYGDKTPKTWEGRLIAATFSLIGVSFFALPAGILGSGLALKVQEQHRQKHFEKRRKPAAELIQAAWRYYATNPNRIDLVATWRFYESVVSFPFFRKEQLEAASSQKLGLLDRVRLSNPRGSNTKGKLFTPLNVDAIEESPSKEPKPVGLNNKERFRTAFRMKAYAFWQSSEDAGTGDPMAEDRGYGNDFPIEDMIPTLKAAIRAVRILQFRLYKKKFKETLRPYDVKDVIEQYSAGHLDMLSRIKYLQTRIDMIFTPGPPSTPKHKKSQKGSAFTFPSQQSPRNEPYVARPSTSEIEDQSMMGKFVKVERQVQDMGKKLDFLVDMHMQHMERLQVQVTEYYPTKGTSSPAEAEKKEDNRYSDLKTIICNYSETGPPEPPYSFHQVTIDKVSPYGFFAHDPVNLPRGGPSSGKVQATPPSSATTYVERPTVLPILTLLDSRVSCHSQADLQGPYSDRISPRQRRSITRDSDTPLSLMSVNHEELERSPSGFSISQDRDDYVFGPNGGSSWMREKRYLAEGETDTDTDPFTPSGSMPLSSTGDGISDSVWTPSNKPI
# T1 sequence (O43526 whole entry): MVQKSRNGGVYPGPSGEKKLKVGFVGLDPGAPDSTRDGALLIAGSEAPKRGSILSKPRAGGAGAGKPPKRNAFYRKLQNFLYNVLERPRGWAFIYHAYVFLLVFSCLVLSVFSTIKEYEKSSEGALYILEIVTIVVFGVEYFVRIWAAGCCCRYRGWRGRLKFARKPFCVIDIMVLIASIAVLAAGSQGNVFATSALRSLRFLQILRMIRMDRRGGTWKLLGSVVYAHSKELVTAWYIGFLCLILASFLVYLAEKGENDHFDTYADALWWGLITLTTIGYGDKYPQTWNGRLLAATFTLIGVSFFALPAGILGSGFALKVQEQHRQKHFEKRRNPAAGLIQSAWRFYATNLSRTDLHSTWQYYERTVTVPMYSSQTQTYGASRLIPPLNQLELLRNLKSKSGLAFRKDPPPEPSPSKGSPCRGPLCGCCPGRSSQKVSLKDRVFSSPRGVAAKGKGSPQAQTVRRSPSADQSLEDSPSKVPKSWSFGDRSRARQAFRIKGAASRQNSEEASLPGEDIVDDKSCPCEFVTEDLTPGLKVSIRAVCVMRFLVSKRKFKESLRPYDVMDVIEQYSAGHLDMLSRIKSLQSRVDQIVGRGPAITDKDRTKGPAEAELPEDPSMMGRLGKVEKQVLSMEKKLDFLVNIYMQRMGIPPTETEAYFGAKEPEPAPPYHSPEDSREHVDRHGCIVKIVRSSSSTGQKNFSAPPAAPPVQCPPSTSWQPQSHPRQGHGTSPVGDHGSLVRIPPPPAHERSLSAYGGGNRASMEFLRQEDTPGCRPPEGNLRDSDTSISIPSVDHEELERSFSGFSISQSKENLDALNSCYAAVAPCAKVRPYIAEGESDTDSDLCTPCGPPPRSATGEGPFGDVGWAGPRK
smiles,measurement,setting,value
O=C(Oc1ccccc1)c1ccccc1 [Phenyl benzoate],logD (Lit.),[1],3.6
CCOC(=O)c1ccccc1 [Ethyl benzoate],logD (Lit.),[1],2.6
"CCCC(=O)Nc1ccc(CNc2ccc(F)cc2)cn1 [compound 44, N ‐(5‐{[(4‐Fluorophenyl)amino]methyl}pyridin‐2‐yl)butyramide]",melting point,,92 °C
CCOC(=O)Nc1ccc(NCc2ccc(F)cc2)nc1C [compound 6],KV7.2/3 opening potency (in words),KV7.2/3 channel [2],equipotent to flupirtine
"CCOC(=O)Nc1ccc(NCc2ccc(F)cc2)nc1N [Flu, flupirtine]",Emax,"KV7.2/3 channel [3]; HEK293E, read-out: Efficacy",100%
same,Ep.a. (anodic peak potential),[4],306 mV
same,peak plasma concentration,[5],1.6 µM
same,LD25 (concentration to reduce cell viability by 25 %),[6],103 ± 47 µM
same,LD25 values (range over both liver cell lines),[6]; human,74 to 103 µM
same,reporting rate of hepatotoxic events,[7],"1.68 cases/100,000 patient‐years"
same,LD25 (concentration to reduce cell viability by 25 %),[8],74 ± 40 µM
"CCOC(=O)Nc1ccc(CCc2ccc(F)cc2)nc1N [compound 7, Ethyl [2‐amino‐6‐(4‐fluorophenethyl)pyridin‐3‐yl]carbamate]",EC50,KV7.2/3 channel [3],> 10 µM
same,KV7.2/3 opening activity (in words),KV7.2/3 channel [3]; HEK‐293 cells overexpressing KV7.2/3,clearly less active than flupirtine
same,Ep.a. (anodic peak potential),[4],628 mV
same,LD25 (concentration to reduce cell viability by 25 %),[6],25 ± 7 µM
same,LD50 (concentration to reduce cell viability by 50 %),[6],>63 µM
same,logD7.4 (single determination),"[9]; calculated from retention time with one calibration function (A–F), Table S7",2.983
same,chromatographic logD,"[9]; pH 7.4, calculated from retention time with one calibration function (A–F), Table S7, read-out: logD7.4 (single determination)",2.95
same,chromatographic logD,"[9]; pH 7.4, estimated by HPLC-based method, pH 7.4, read-out: LogD 7.4",3
same,LD25 (concentration to reduce cell viability by 25 %),[8],27 ± 16 µM
same,LD50 (concentration to reduce cell viability by 50 %),[8],>63 µM
